According to article PMC9404985, “Development of Dicationic Bisguanidine-Arylfuran Derivatives as Potent Agents against Gram-Negative Bacteria” (Antibiotics, 2022):
Read-outs that look alike come from different tables or passages of the source.

Tests used:
[1] = Cytotoxicity assay (PrestoBlue) MCF-7; type: cell-based; details: human, MCF-7 cells (breast cancer cell line), 24 h incubation
Procedure: The cytotoxicity levels of all compounds were evaluated against human Michigan Cancer Foundation-7 (MCF-7) and Hepatoma G2 cell line (HepG2) cell lines. MCF-7 is an extensively characterized breast cancer cell line isolated in 1970 [41], while HepG2 cells were derived from a hepatoma in 1975 [42]. Both cell lines grow robustly during in vitro culture and have been widely used for cytotoxicity testing. Cells of hepatic origin, such as HepG2, are of particular relevance for toxicity studies as many drugs accumulate in the liver during metabolic conversion. Cells were grown in Dulbecco’s Modified Eagle Medium supplemented with 10% fetal calf serum and kept in exponential growth, as previously reported. Before the assay, cells were reseeded into 96-well microtiter plates at a density allowing continued exponential growth and let to settle for 24 h. The compounds were added from a stock solution in DMSO, for a final concentration of 0.3% v/v of the solvent in the culture medium. After 24 h of incubation in presence of the compound, cell viability was assayed using PrestoBlue Cell Viability Reagent (resazurin-based solution, ThermoFisher, Waltham, MA, USA) according to the manufacturer’s instructions. […] Each assay contained a DMSO control at the equivalent starting concentration, positive control (uninhibited cell growth) and negative control (cell medium only). Survival was expressed as percentage of the solvent-only control. […] The Selectivity Index (SI) for each compound and bacterial strain was calculated as the ratio between the mean of the EC50 values for the two human cell lines and the EC50 for the bacterial strain in question ((EC50 MCF-7 + EC50 HepG2)/2)/EC50 bacterial strain).

[2] = test system: P. aeruginosa (CCUG #59347); assay: Antibacterial activity against isolates (Omnilog, Biolog redox dye); type: cell-based, Pseudomonas aeruginosa; details: for EC50 / EC90: Pseudomonas aeruginosa, CCUG59347, ca-MH broth, 24 h, 37 °C; for Selectivity index P. aeruginosa (CCUG #59347): SI = ((EC50 MCF-7 + EC50 HepG2)/2)/EC50 bacterial strain
Procedure: (§1) The antibacterial activities of eight compounds (1, 3, 4, 6, 8, 10, 16, and 17) were tested against 10 different isolates of Gram-negative bacteria from human and other sources, two E. coli (CCUG #67180 and CCUG #17620/ATCC #25922, control strain), two K. pneumoniae (CCUG #58547 and CCUG #225T), two P. aeruginosa (CCUG #17619 and CCUG #59347), two A. baumannii (CCUG #57035 and CCUG #57250), E. cloacae (CCUG #6323T), and E. hormaechei (CCUG #58962) in a 96-well plate format. […] Bacterial mass from the ten isolates grown overnight on horse blood or Mueller–Hinton agar plates was suspended in ca-MH and adjusted to a final inoculum cell density of ~5 × 10^5 CFU/mL. For all assays, Biolog redox dye A diluted 100× from the stock solution was used for measurements of all ten isolates (up to a total volume of 120 µL per well). All plates included one well per isolate with only inoculum and dye but no test compound (i.e., positive control) and one well per isolate with inoculum, dye and DMSO diluted 1667×, corresponding to the DMSO concentration in the wells with the highest concentration of test compound. All measurements were performed using the Omnilog microplate reader (Biolog, Hayward, CA, USA) where the 96-well plates were read at 15 min intervals for a total of 24 h at 37 °C.

[3] = test system: A. baumannii (CCUG #57250); assay: as above; type: cell-based, Acinetobacter baumannii; details: for EC90 / EC50: ca-MH broth, 24 h, 37 °C; for EC50: CCUG57250; for Selectivity index A. baumannii (CCUG #57250): SI = ((EC50 MCF-7 + EC50 HepG2)/2)/EC50 bacterial strain
Procedure: (§2) The antibacterial activities of eight compounds (1, 3, 4, 6, 8, 10, 16, and 17) were tested against 10 different isolates of Gram-negative bacteria from human and other sources, two E. coli (CCUG #67180 and CCUG #17620/ATCC #25922, control strain), two K. pneumoniae (CCUG #58547 and CCUG #225T), two P. aeruginosa (CCUG #17619 and CCUG #59347), two A. baumannii (CCUG #57035 and CCUG #57250), E. cloacae (CCUG #6323T), and E. hormaechei (CCUG #58962) in a 96-well plate format. The compounds to test were 3-fold diluted in six steps in cation-adjusted Mueller-Hinton (ca-MH) broth to final concentrations spanning from 30 to 0.12 µM, i.e., a 1667–416,667 times dilution from the 50 mM stocks. Bacterial mass from the ten isolates grown overnight on horse blood or Mueller–Hinton agar plates was suspended in ca-MH and adjusted to a final inoculum cell density of ~5 × 10^5 CFU/mL. For all assays, Biolog redox dye A diluted 100× from the stock solution was used for measurements of all ten isolates (up to a total volume of 120 µL per well). All plates included one well per isolate with only inoculum and dye but no test compound (i.e., positive control) and one well per isolate with inoculum, dye and DMSO diluted 1667×, corresponding to the DMSO concentration in the wells with the highest concentration of test compound. All measurements were performed using the Omnilog microplate reader (Biolog, Hayward, CA, USA) where the 96-well plates were read at 15 min intervals for a total of 24 h at 37 °C.

[4] = test system: E. hormaechei (CCUG #58962); assay: as above; type: cell-based, Enterobacter hormaechei; details: for EC50 / EC90: Enterobacter hormaechei, CCUG58962, ca-MH broth, 24 h, 37 °C; for Selectivity index E. hormaechei (CCUG #58962): SI = ((EC50 MCF-7 + EC50 HepG2)/2)/EC50 bacterial strain
Procedure: as §1

[5] = test system: E. coli (CCUG #17620/ ATCC #25922); assay: as above; type: cell-based, Escherichia coli; details: for EC50 / EC90: Escherichia coli, ca-MH broth, 24 h, 37 °C; for Selectivity index E. coli (CCUG #17620/ ATCC #25922): SI = ((EC50 MCF-7 + EC50 HepG2)/2)/EC50 bacterial strain
Procedure: as §2

E. coli (CCUG #67180) = assay: as above; type: cell-based, Escherichia coli; details: for EC90 / EC50: Escherichia coli, ca-MH broth, 24 h, 37 °C; for EC90: CCUG67180, 24 h; for EC50: CCUG67180; for Selectivity index E. coli (CCUG #67180): SI = ((EC50 MCF-7 + EC50 HepG2)/2)/EC50 bacterial strain
Procedure: as §2

[6] = test system: B. subtilis (NBRC/ATCC #111470); assay: Antibacterial resazurin assay, laboratory strain; details: for EC50 / EC90: Bacillus subtilis, ATCC111470, 18 h; for EC50: read-out: Bsu EC50; for EC90: read-out: Bsu EC90; for Selectivity index B. subtilis: mean of MCF-7 and HepG2 EC50 over bacterial EC50, laboratory strain
[7] = test system: P. putida (NBRC/ATCC #100650); assay: Antibacterial resazurin assay, laboratory strain; details: for EC90: read-out: Ppu EC90; for Selectivity index P. putida: mean of MCF-7 and HepG2 EC50 over bacterial EC50, laboratory strain
[8] = test system: P. caledonica (NBRC/ATCC #102488); assay: Antibacterial resazurin assay, laboratory strain; details: for EC50 / EC90: Paraburkholderia caledonica, ATCC102488, 18 h; for EC50: read-out: Pcal EC50; for EC90: read-out: Pcal EC90; for Selectivity index P. caledonica: mean of MCF-7 and HepG2 EC50 over bacterial EC50, laboratory strain
[9] = Acinetobacter baumannii, CCUG57250, 24 h
[10] = Pseudomonas putida, ATCC100650, 18 h, read-out: Ppu EC50, laboratory strain, 18 h, 37 °C, AlamarBlue
[11] = Pseudomonas putida, ATCC100650, 18 h
[12] = read-out: Ppu EC50, laboratory strain, 18 h, 37 °C, AlamarBlue

| SMILES | EC50 at 24 h [1] | EC50 [2] | EC90 [2] | Selectivity index P. aeruginosa (CCUG #59347) [2] | EC90 [3, 9] | EC50 ([3]; Acinetobacter baumannii) | EC50 [4] | EC90 [4] | Selectivity index E. hormaechei (CCUG #58962) [4] | EC50 [5] | EC90 [5] | Selectivity index E. coli (CCUG #17620/ ATCC #25922) [5] | EC50 (E. coli (CCUG #67180)) | Selectivity index E. coli (CCUG #67180) (E. coli (CCUG #67180)) | EC50 [6] | EC90 [6] | EC50 [7, 10] | EC90 [7, 11] | Selectivity index P. putida [7] | EC50 [8] | further results |
| --- | --- | --- | --- | --- | --- | --- | --- | --- | --- | --- | --- | --- | --- | --- | --- | --- | --- | --- | --- | --- | --- |
| N=C(N)Nc1ccc(-c2ccc(-c3ccc(NC(=N)N)cc3Cl)o2)c(Cl)c1 [Compound 1, 2,5-Bis(2-chloro-4-guanidinophenyl)furan] | 34.4 µM | 5.3 µM | 7.4 µM | 7.3 | 6.6 µM | 4.4 µM | 7.7 µM | 9.1 µM | 5.0 | 3.9 µM | 6.3 µM | 9.9 | 3.2 µM | 12.2 | 25.4 µM | 136 µM | 258 µM | 517 µM | 0.2 | 20.3 µM | Selectivity index A. baumannii (CCUG #57250) [3]: 8.7; EC90 (E. coli (CCUG #67180)): 3.8 µM; Selectivity index B. subtilis [6]: 1.5; EC90 [8]: 136 µM; Selectivity index P. caledonica [8]: 1.9 |
| N=C(N)Nc1ccc(-c2ccc(-c3ccc(NC(=N)N)cc3)o2)cc1 [Compound 3] | 64.5 µM | 5.2 µM | 8.1 µM | 24.1 | 2.4 µM | 1.7 µM | 7.6 µM | 9.1 µM | 16.4 | 1.6 µM | 2.2 µM | 76.6 | 5.3 µM | 23.7 | 11.2 µM | 22.5 µM | 8.3 µM | 14.3 µM | 15.0 | 4.5 µM | EC90 [3]: 2.3 µM; Selectivity index B. subtilis [6]: 11.1; EC90 [8]: 18.9 µM; Selectivity index P. caledonica [8]: 27.4 |
| Cc1cc(NC(=N)N)ccc1-c1ccc(-c2ccc(NC(=N)N)cc2C)o1 [Compound 4, 2,5-Bis(4-guanidino-2-methylphenyl)furan] | > 100 µM | 66.8 µM | 77 µM | 1.1 | 22.5 µM | 15.8 µM | 21.9 µM | 25.9 µM | 3.4 | 11.3 µM | 18.3 µM | 6.7 | 23.1 µM | 3.3 | 6.2 µM | 8.5 µM | ~14.4 µM | 59.6 µM | 5.2 | 8.2 µM | Selectivity index A. baumannii (CCUG #57250) [3]: 4.8; EC90 (E. coli (CCUG #67180)): 25.3 µM; Selectivity index B. subtilis [6]: 12.2; EC50 [7, 12]: 14.5 µM; EC90 [8]: 51.9 µM; Selectivity index P. caledonica [8]: 9.2 |
| COc1cc(NC(=N)N)ccc1-c1ccc(-c2ccc(NC(=N)N)cc2OC)o1 [Compound 6, 2,5-Bis(4-guanidino-2-methoxyphenyl)furan] | 74.7 µM | 54.8 µM | 65.3 µM | 2.6 | 8.8 µM | 7.6 µM | 15.9 µM | 22.9 µM | 9.0 | 6.2 µM | 7.5 µM | 23.1 | 63.4 µM | 2.3 | > 300 µM | > 300 µM | ~14.4 µM | 19.7 µM | 10.1 | 25.6 µM | Selectivity index A. baumannii (CCUG #57250) [3]: 19.0; EC90 (E. coli (CCUG #67180)): 74.4 µM; EC50 [7, 12]: 14.3 µM; EC90 [8]: 35.6 µM; Selectivity index P. caledonica [8]: 5.6 |
